# Test results as given in the supplement of paper PMC10011410.
# Assays:
# [1] = tested on: U-2 OS; assay: cell painting activity score (Mahalanobis distance from DMSO wells); higher = stronger morphological phenotype; settings: 24 h
# Experimental: (§1)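 Cell painting in U-2 OS cells (384-well, about 1,500 cells per well), compound exposure 24 h, usually six 2-fold concentrations from 20 to 0.625 uM (some compounds higher or lower). Relative cell count is the cell number per well relative to DMSO wells. Activity score is the Mahalanobis distance of the morphological profile from DMSO control wells. Mean of four technical replicate plates.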
# [2] = tested on: U-2 OS; assay: relative cell count vs DMSO (cell painting) (fraction of DMSO control); higher = more cells remaining (less cytotoxic); settings: 24 h
# Experimental: as §1
# [3] = tested on: U-2 OS; assay: AUC of culture confluence over time (live-cell imaging) (AUC (confluence % x time)); higher = more confluent culture (less growth inhibition)
# Experimental: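 Live-cell Incucyte imaging of U-2 OS cells in F-12K medium. Compounds were tested mostly at 5, 10 and 20 uM, and cells were imaged every 4 h for up to 60 h. Value is the area under the curve of phase-contrast confluence over time.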
SMILES,cell painting activity score ([1]; 0.625 µM),cell painting activity score ([1]; 1.25 µM),cell painting activity score ([1]; 2.5 µM),cell painting activity score ([1]; 5 µM),cell painting activity score ([1]; 10 µM),cell painting activity score ([1]; 20 µM),relative cell count ([2]; 0.625 µM),relative cell count ([2]; 1.25 µM),relative cell count ([2]; 2.5 µM),relative cell count ([2]; 5 µM),relative cell count ([2]; 10 µM),relative cell count ([2]; 20 µM),AUC of culture confluence over time ([3]; 5 µM),AUC of culture confluence over time ([3]; 10 µM),AUC of culture confluence over time ([3]; 20 µM)
O=C(Nc1ccc([N+](=O)[O-])cc1Cl)c1cc(Cl)ccc1O,5.54,8.61,10.3,16,17.7,14.8,1.13,1.05,1.06,0.922,0.808,0.753,–,–,–
COc1ccc2cc1Oc1ccc(cc1)C[C@H]1c3cc(c(OC)cc3CCN1C)Oc1c(OC)c(OC)cc3c1[C@H](C2)N(C)CC3,5.28,5.79,5.97,16.8,28.3,14.8,1.08,1.06,1.04,1.07,0.973,0.322,–,–,–
N#CC(C#N)=NNc1cccc(Cl)c1,5.76,5.02,7.58,9.31,13.4,16.2,0.975,0.949,0.98,0.897,0.711,0.491,–,–,–
COC1=C(OC)C(=O)c2ccccc2C1=O,7.97,8.63,10.7,18.9,21.2,24.7,0.99,0.895,0.81,0.489,0.46,0.149,–,–,–
CO[C@@H]1[C@H](N(C)C(=O)c2ccccc2)C[C@H]2O[C@]1(C)n1c3ccccc3c3c4c(c5c6ccccc6n2c5c31)C(=O)NC4,13.9,15.2,19.8,22.9,23.7,24.4,1.02,0.757,0.456,0.362,0.347,0.354,–,–,–
C=CCNC1=C2C[C@@H](C)C[C@H](OC)[C@H](O)[C@@H](C)/C=C(\C)[C@H](OC(N)=O)[C@@H](OC)/C=C\C=C(/C)C(=O)NC(=CC1=O)C2=O,16.6,19.1,19.1,19.1,19.2,18.3,0.814,0.697,0.61,0.586,0.589,0.549,–,–,–
Cc1ccc(S(=O)(=O)/C=C/C#N)cc1,10.4,12.9,16.7,18.3,21,23.7,0.923,0.942,0.678,0.485,0.231,0.286,–,–,–
C[C@H](CC[C@@]1(O)O[C@H]2C[C@H]3[C@@H]4CC=C5C[C@@H](O[C@@H]6O[C@H](CO)[C@@H](O[C@@H]7O[C@@H](C)[C@H](O)[C@@H](O)[C@H]7O)[C@H](O)[C@H]6O[C@@H]6O[C@@H](C)[C@H](O)[C@@H](O)[C@H]6O)CC[C@]5(C)[C@H]4CC[C@]3(C)[C@H]2[C@@H]1C)CO[C@@H]1O[C@H](CO)[C@@H](O)[C@H](O)[C@H]1O,14.9,14.4,15.1,16.6,21,22.7,0.811,0.808,0.734,0.502,0.0412,0.0114,–,–,–
CC(C)C[C@@H](C=O)NC(=O)[C@@H](CC(C)C)NC(=O)[C@H](CC(C)C)NC(=O)OCc1ccccc1,4.19,4.34,5.35,5.4,3.89,7.43,1,0.959,0.944,0.993,0.986,0.909,–,–,–
O=C(O)C1(C(=O)O)CCC1.[NH2-].[NH2-].[Pt+2],4.1,4.15,4.49,4.29,5.7,6.66,0.92,0.853,0.786,0.855,0.844,0.814,–,–,–
Oc1ccc(/C=C/c2cc(O)cc(O)c2)cc1,–,–,–,–,–,–,–,–,–,–,–,–,49,46.4,42.5
O=C1C=C(Cl)C(=O)c2ccccc21,7.9,18.1,19.4,17.9,22.2,25.4,0.745,0.492,0.216,0.29,0.169,0.267,–,–,–
